In publication PMC3130777, “Phase I Hydroxylated Metabolites of the K2 Synthetic Cannabinoid JWH-018 Retain In Vitro and In Vivo Cannabinoid 1 Receptor Affinity and Activity” (PLoS ONE, 2011):
Several values for one entry are separate records, joined by “and”; a condition that tells them apart may be missing. Identical values can stand only once. Like-named read-outs stand apart in the source and are kept apart here.

What was measured:
CB1R [1] = biological target: T1, CB1R (Mus musculus, UniProt P47746); assay: biochemical; type: binding; conditions: for Displacement of [^3H]CP-55,940 from CB1Rs: mouse brain homogenates, data not shown; for Fold higher CB1R affinity than Δ^9-THC: relative to Δ^9-THC Ki
T1 construct: CB1Rs are endogenously expressed in abundant quantities in the CNS; from tissue; host or cells: whole brain of B6SJL mice, crude membrane homogenates

CB1R [2] = biological target: T1, CB1R; type: biochemical; conditions: for Level of G-protein stimulation relative to Δ^9-THC / Agonist type at mCB1Rs (partial or full): 10 µM; for Agonist type at mCB1Rs (partial or full): compared with full agonist CP-55,940; for G-protein stimulation ([^35S]GTPγS bound): receptor saturating concentration (10 µM), Fig. 3A
NIH Swiss mice [3] = assay: Locomotor activity measured by radiotelemetry in mice; type: in vivo, mouse; conditions: for Locomotor activity (area under the curve) relative to vehicle controls: 10 h time course, n = 5
NIH Swiss mice [4] = assay: Core body temperature measured by radiotelemetry in mice; type: in vivo, mouse; conditions: for Core body temperature area under the curve relative to vehicle controls: 0–10 hr, n = 5; for Depression in core body temperature compared with 30 mg/kg Δ^9-THC: 10 h time course
CB1R [5] = biological target: CB1R; design: method as in PMID 10940540, PMID 21079038; conditions: read-out: Ki values previously reported; cited from earlier work
[6] = Affinity (Ki) for CB1Rs, competition against 0.2 nM [^3H]CP-55,940, mouse whole brain membrane homogenates, mean ± SEM, n = 3–4
[7] = concentration-effect curve, Fig. 3B, n = 3–4
[8] = AM-251 10 mg/kg pretreatment, 30 mg/kg Δ^9-THC, 3 mg/kg JWH-018, 10 mg/kg M1 i.p.

T1 sequence (P47746 whole entry): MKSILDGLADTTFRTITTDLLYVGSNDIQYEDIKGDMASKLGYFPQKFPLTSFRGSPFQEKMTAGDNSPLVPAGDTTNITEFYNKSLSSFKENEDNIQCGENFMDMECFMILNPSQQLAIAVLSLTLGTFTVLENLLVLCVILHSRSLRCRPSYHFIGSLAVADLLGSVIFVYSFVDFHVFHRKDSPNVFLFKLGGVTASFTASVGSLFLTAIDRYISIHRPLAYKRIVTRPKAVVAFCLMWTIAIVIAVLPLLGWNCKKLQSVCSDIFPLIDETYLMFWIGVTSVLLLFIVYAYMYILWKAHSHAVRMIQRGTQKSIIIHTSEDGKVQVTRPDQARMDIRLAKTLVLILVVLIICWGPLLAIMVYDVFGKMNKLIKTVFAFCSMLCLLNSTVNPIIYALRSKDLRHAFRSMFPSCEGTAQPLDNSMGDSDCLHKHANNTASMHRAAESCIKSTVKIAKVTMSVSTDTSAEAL

| SMILES | Ki (CB1R [1]; [6]) | Displacement of [^3H]CP-55,940 from CB1Rs (CB1R [1]) | Level of G-protein stimulation relative to Δ^9-THC (CB1R [2]) | Agonist type at mCB1Rs (partial or full) (CB1R [2]) | G-protein stimulation ([^35S]GTPγS bound) (CB1R [2]) | other results |
| --- | --- | --- | --- | --- | --- | --- |
| CCCCCn1cc(C(=O)c2cccc3ccccc23)c2cc(O)ccc21 [M2, (5-hydroxy-1-pentyl-1H-indol-3-yl)(naphthalen-1-yl)methanone] | 4.22 ± 1.16 nM | completely displaced | greater | full | 0.32 ± 0.03 pmol/mg |  |
| O=C(O)CCCCn1cc(C(=O)c2cccc3ccccc23)c2ccccc21 [M6, 5-(3-(1-naphthoyl)-1H-indol-1-yl)pentanoic acid] | > 10000 nM |  |  |  |  | Affinity (Ki) for CB1Rs (CB1R [1]; competition against 0.2 nM [^3H]CP-55,940, mouse whole brain membrane homogenates, mean ± SEM, n = 3–4): fails to bind |
| O=C(c1cccc2ccccc12)c1cn(CCCCCO)c2ccccc12 [M5, (1-(5-hydroxypentyl)-1H-indol-3-yl)(naphthalen-1-yl)methanone] | 25.2 ± 4.99 nM | completely displaced | greater | full |  |  |
| CCCCCn1cc(C(=O)c2cccc3ccccc23)c2c(O)cccc21 [M1, (4-hydroxy-1-pentyl-1H-indol-3-yl)(naphthalen-1-yl)methanone] | 2.6 nM and 2.65 nM | completely displaced | greater | partial |  | Fold higher CB1R affinity than Δ^9-THC (CB1R [1]): ~10 fold; Locomotor activity (area under the curve) relative to vehicle controls (NIH Swiss mice [3]; 10 mg/kg i.p.): significantly decrease; Core body temperature area under the curve relative to vehicle controls (NIH Swiss mice [4]; 10 mg/kg i.p.): significantly lower than vehicle controls; Depression in core body temperature compared with 30 mg/kg Δ^9-THC (NIH Swiss mice [4]; 10 mg/kg i.p.): greater depressions |
| CCCCCn1cc(C(=O)c2cccc3ccccc23)c2ccccc21 [JWH-018, (1-pentyl-1H-indol-3-yl)-1-naphthalenyl-methanone] | 1.2 nM and 1.22 nM |  | greater | full | 0.29 ± 0.02 pmol/mg | Fold higher CB1R affinity than Δ^9-THC (CB1R [1]): ~10 fold; Maximal efficacy (Emax) of G-protein activation (CB1R [2]; [7]): 0.29 ± 0.02 pmol/mg; Locomotor activity (area under the curve) relative to vehicle controls (NIH Swiss mice [3]; 3 mg/kg i.p.): significantly decrease; Core body temperature area under the curve relative to vehicle controls (NIH Swiss mice [4]; 3 mg/kg i.p.): significantly lower than vehicle controls; Depression in core body temperature compared with 30 mg/kg Δ^9-THC (NIH Swiss mice [4]; 3 mg/kg i.p.): greater depressions; Ki (CB1R [5]): 9 nM |
| Cc1c(C(=O)NN2CCCCC2)nn(-c2ccc(Cl)cc2Cl)c1-c1ccc(I)cc1 [AM-251, reference compound] |  |  |  |  |  | Effect of Δ^9-THC, JWH-018 and M1 on locomotor activity after antagonist pretreatment (NIH Swiss mice [3]; [8]): significantly attenuated; Core body temperature after antagonist pretreatment of cannabinoid-treated mice (NIH Swiss mice [4]; [8]): restored core body temperature to control levels |
| CCCCCn1cc(C(=O)c2cccc3ccccc23)c2cccc(O)c21 [M4] | 20.8 ± 4.85 nM | completely displaced | equivalent | partial |  |  |
| CCCCCCC(C)(C)c1ccc([C@@H]2C[C@H](O)CC[C@H]2CCCO)c(O)c1 [CP-55,940, reference compound] |  |  |  | full | 0.39 ± 0.02 pmol/mg | Ki (CB1R [1]; competition against 0.2 nM [^3H]CP-55,940, mouse whole brain membrane homogenates, mean ± SEM, n = 3–4, read-out: Affinity (Ki) for CB1Rs): 0.26 ± 0.12 nM; Maximal efficacy (Emax) of G-protein activation (CB1R [2]; [7]): 0.28 ± 0.02 pmol/mg; EC50 (CB1R [2]; concentration-effect curve, Fig. 3B, n = 3–4, read-out: EC50 of G-protein activation): 3.36 ± 2.35 nM |
| CCCCCn1cc(C(=O)c2cccc3ccccc23)c2ccc(O)cc21 [M3, (6-hydroxy-1-pentyl-1H-indol-3-yl)(naphthalen-1-yl)methanone] | 17.2 ± 3.58 nM | completely displaced | greater | full |  |  |
